{"source": "patent US9480680B2", "about": "“Stable pharmaceutical composition of clopidogrel free base for oral and parenteral delivery” (priority 2013, dated 2016)", "key": {"[1]": {"test_system": "platelet aggregation", "settings": "cited from earlier work"}, "[2]": {"settings": "for Concentration, Aqueous Phase / Concentration, Oil Phase: 600 mg drug in 20 g soy bean oil + 20 g DI water, stirred at room temperature 24 hours, HPLC; for pH of aqueous phase: aqueous phase at end of partition study; for O/W partition ratio: soy bean oil / DI water, room temperature 24 hours", "procedure": "In order to determine percentage of clopidogrel partitioning in oil and aqueous phases, a partition study was conducted using clopidogrel biosulfate and clopidogrel free base. 600 mg of drug was weighed out and added to a beak containing equal weight of soy bean oil and DI water (20 g each). Stir the mixture in room temperature for 24 hours. At the end of study, samples from both phases were withdrawn and tested by HPLC as described in Example 14. The pH of the aqueous phase were measured."}, "[3]": {"settings": "cited from earlier work"}, "[4]": {"settings": "5 min", "text": "As used herein the disease or condition refers to any disease or condition which may be treated using clopidogrel containing medicine for the prevention of atherothrombotic events such as myocardial infarction, stroke, peripheral arterial disease, acute coronary syndrome, and cardio-vascular death."}, "[5]": {"settings": "cited from earlier work", "remark": "listed apart in the source"}}, "note": "Where two headings read alike, the source gives them in different places.", "data": [{"smiles": "O=C(O)[C@H](c1ccccc1Cl)N1CCc2sccc2C1", "note": "[Impurity A]", "values": [{"measurement": "biological / pharmacological activity", "setting": "[1]", "value": "no pharmacological activity"}]}, {"smiles": "COC(=O)[C@H](c1ccccc1Cl)N1CCc2sccc2C1", "note": "[Clopidogrel free base, methyl (+)-(S)-α-(o-chlorophenyl)-6,7-dihydrothieno[3,2-c]pyridine-5(4H)-acetate]", "values": [{"measurement": "Concentration, Aqueous Phase", "setting": "[2]", "value": 6, "unit": "µg/mL"}, {"measurement": "Concentration, Oil Phase", "setting": "[2]", "value": 29000, "unit": "µg/mL"}, {"measurement": "pH of aqueous phase", "setting": "[2]", "value": 7}, {"measurement": "amount of clopidogrel in the aqueous phase", "setting": "[2]; soy bean oil / DI water partition study, result in words", "value": "negligible"}, {"measurement": "O/W partition ratio", "setting": "[2]", "value": 4833}, {"measurement": "biological / pharmacological activity", "setting": "[1]", "value": "biologically active"}, {"measurement": "solubility in ethyl ether", "setting": "[3]; ethyl ether", "value": "practically insoluble"}, {"measurement": "stability under increased moisture and temperature", "setting": "[3]", "value": "unstable"}, {"measurement": "solubility in methanol", "setting": "[3]; methanol", "value": "dissolves freely"}, {"measurement": "solubility in methylene chloride", "setting": "[3]; methylene chloride", "value": "dissolves sparingly"}, {"measurement": "solubility at pH 1", "setting": "[3]; pH 1", "value": "freely soluble"}, {"measurement": "solubility in water at neutral pH", "setting": "[3]; water, neutral pH", "value": "practically insoluble"}, {"measurement": "degradation in diluted NaOH solution", "setting": "[4]", "value": "degraded completely in 5 minutes"}]}, {"smiles": "COC(=O)[C@H](c1ccccc1Cl)N1CCc2sccc2C1", "note": "[Clopidogrel bisulfate]", "values": [{"measurement": "Concentration, Aqueous Phase", "setting": "[2]", "value": 15000, "unit": "µg/mL"}, {"measurement": "Concentration, Oil Phase", "setting": "[2]", "value": 17000, "unit": "µg/mL"}, {"measurement": "pH of aqueous phase", "setting": "[2]", "value": 2}, {"measurement": "clopidogrel staying in the aqueous phase", "setting": "[2]; soy bean oil / DI water partition study", "value": "about 50%"}, {"measurement": "O/W partition ratio", "setting": "[2]", "value": 1.1}, {"measurement": "stability under increased moisture and temperature", "setting": "[3]; listed as clopidogrel biosulfate", "value": "relatively unstable"}]}, {"smiles": "COC(=O)[C@@H](c1ccccc1Cl)N1CCc2sccc2C1", "note": "[Impurity C, methyl ( )-(R)-(o-chlorophenyl)-6,7-dihydrothieno[3,2-c]pyridine-5(4H)-acetate]", "values": [{"measurement": "anti-aggregation activity", "setting": "[1]", "value": "does not exhibit any anti-aggregation activity"}, {"measurement": "convulsions", "setting": "[5]; high doses of animals", "value": "can evoke convulsions"}, {"measurement": "tolerability", "setting": "[5]; in vivo", "value": "poorly tolerated"}]}]}
